Test results reported in US5808124A, “O- or S-substituted dihydronaphthalene derivatives having retinoid and/or retinoid antagonist-like biological activity” (Allergan, priority 1996, dated 1998).

System: ornithine decarboxylase (ODC)
Assay: ODC assay: inhibition of TPA induction of ornithine decarboxylase (ODC) activity
Format: biochemical
Settings: 60% inhibition in the ODC assay (TPA induction)
Source text: A classic measure of retinoic acid activity involves measuring the effects of retinoic acid on ornithine decarboxylase. The original work on the correlation between retinoic acid and decrease in cell proliferation was done by Verma & Boutwell, Cancer Research, 1977, 37,2196-2201. That reference discloses that ornithine decarboxylase (ODC) activity increased precedent to polyamine biosynthesis. It has been established elsewhere that increases in polyamine synthesis can be correlated or associated with cellular proliferation. Thus, if ODC activity could be inhibited, cell hyperproliferation could be modulated. Although all cases for ODC activity increases are unknown, it is known that 12-0-tetradecanoylphorbol-13-acetate (TPA) induces ODC activity. Retinoic acid inhibits this induction of ODC activity by TPA. […] Activity of exemplary compounds of the present invention in the above-described ODC assay is disclosed in Table 1 which provides the IC60 concentration for the respective exemplary compound. ("IC60 " is that concentration of the test compound which causes 60% inhibition in the ODC assay. By analogy, "IC80, for example, is that concentration of the test compound which causes 80% inhibition in the ODC assay.)

IC60 [nmols]	SMILES
1.9	CCOC(=O)c1ccc(/N=N/c2ccc3c(c2)C(OCOC)CCC3(C)C)cc1 (racemic) [Compound D6, (+/-) ethyl 4-[(5,5-dimethyl-8-(methoxymethyloxy)-5,6,7,8-tetrahydronaphthalen-2-yl)azo]benzoate]
10.3	CCO/N=C1\CCC(C)(C)c2ccc(/C=C/c3ccc(C(=O)OCC)cc3)cc21 [Compound A5, ethyl (E)-4-[2-(5,5-dimethyl-5,6-dihydro-8(7H)-anti-(O-ethyl oxime)-naphthalen-2-yl)ethenyl]-benzoate]
43.7	CCOC(=O)c1ccc(/C=C/c2ccc3c(c2)C2(CCC3(C)C)SCCCS2)cc1 [Compound A23]
10	CCO/N=C1\CCC(C)(C)c2ccc(/C(C)=C/C=C/C(C)=C/C(=O)OCC)cc21 [Compound C22b, Ethyl 7-[4,4-dimethyl-3,4-dihydro-1(2H)-anti-(O-ethyl oxime)-naphth-7-yl]3,7-dimethyl-hepta-2(E),4(E),6(E)-trienoate]

Same assay, conditions: 80% inhibition in the ODC assay (TPA induction); printed in the IC60 column marked (IC80)

IC80 [nmols]	SMILES
4.3	CCOC(=O)c1ccc(/C=C/c2ccc3c(c2)C(Sc2ccccc2)=CCC3(C)C)cc1 [Compound A16, ethyl (E)-4-[2-(5,6-dihydro-5,5-dimethyl-8-(phenylthio)-naphthalen-2-yl)ethenyl]benzoate]
4.3	CC1(C)CC=C(c2cccs2)c2ccc(C(=O)/C=C/c3ccc(C(=O)O)cc3)cc21 [Compound D34, 4-[3-oxo-3-(7,8-dihydro-5-(2-thienyl)-8.8-dimethyl-2-naphthalenyl) - 1-propenyl]-benzoic acid]
